Data reported in patent US6495537B1, “Method for inhibition of photocarcinogenesis or photoimmunosuppression using niacin” (University of Kentucky Research Foundation, priority 1998, dated 2002).
Where two headings read alike, the source gives them in different places.

Assays:
UV-induced skin tumors = conditions: for number of tumors per mouse: 26.5 weeks after first UV treatment, basal diet 0.72; for skin tumor incidence: UV-irradiated mice, 26.5 weeks after first UV exposure, unsupplemented 68%
Experimental: Six-week-old specific-pathogen-free female BALB/cAnNTacfBR (H-2^d) mice were purchased from Taconic Laboratory Animals (Germantown, N.Y.) and quarantined from two weeks before treatment. Animals were housed in microisolators under barrier conditions with a 12:12-hour light-dark cycle at 20+/−2° C. (SD).
(§1) Groups of 25 mice each received the basal diet which consisted of the American Institute of Nutrition 76A rodent diet containing 10% corn oil and 30 mg niacin per kilogram diet, supplemented with 0, 0.1, 0.5, or 1.0% niacin (Dyets Inc. Bethlehem, Pa.). All diets were pelleted (Dyets Inc.) without heat or steam and stored under refrigeration for less than 10 weeks. Animals were fed ad libitum and given fresh diet three times per week for three weeks before UV treatments began, and throughout the study. Niacin intakes were calculated from the diet consumed. Animals were supplied with sterilized water ad libitum.
(§2) The mice were exposed to UV radiation after three weeks of oral niacin administration. The animals were shaved dorsally with animal clippers each week. The filter tops, food, and water bottles were removed from the microisolators while mice were exposed to UV radiation emitted by banks of six FS40 Westinghouse fluorescent sun lamps for 30 min per day, five days per week. This UV regimen continued for 22 weeks in the carcinogenesis experiments, and for 11 weeks in the passive transfer assay experiments. The cages were systemically rotated during the study to compensate for any differences in flux at different positions under the lamps. The FS40 lamps emit a continuous spectrum from 270 to 390 nm with peak emission at 313 nm. About 75% of the energy output is in the wavelength range of 280-340 nm with about 23% in the 340-390 nm range. The total UVB radiation dose was approximately 1.41×10^6 Jm^−2 in the carcinogenesis experiments, and about […] in the passive transfer experiments, as measured with a UVX Digital Radiometer with a UVX-31 sensor (Ultraviolet Products, San Gabriel, Calif.).
(§3) Differences in primary tumor incidence between the experimental groups were analyzed by the Wilcoxon rank sum test. […] For the NAD assay, the Q test was first applied to the data to determine whether questionable values should be rejected. This test was conducted at the 95% confidence level. The data were then analyzed using the MIXED procedure in the statistical analysis program SAS 6.11. […] In this manner, it was possible to first account for differences and variability in duplicate or triplicate samples from the same mouse before the differences between each mouse in each group was compared. This procedure resulting in more precise group means than if each single value carried equal weight. Least-squares means for each group were calculated, and a multiple comparison between these means was made after applying a Tukey-Kramer adjustment for the p-values.
Groups of 25 mice each were fed the AIN76A rodent diet containing 10% corn oil and 30 mg niacin per kilogram diet, supplemented with 0, 0.1, 0.5, or 1.0% niacin. After three weeks of this diet, dorsally shaved mice were exposed to UV radiation for 30 min per day, five days per week for 22 weeks.

UVM12 tumor cells = conditions: 32 days after tumor challenge, 0% niacin 91.6, unirradiated control 21.9
Experimental: as §2, §3

skin NAD = test system: skin NAD
Experimental: as §3

[1] = for Body Weight: mean; for Food Consumed: mean (SD)
Experimental: as §1
Niacin ingestion was calculated from diet consumption recorded on 50% of the animals of each group.

[2] = diet supplemented with 0.1% niacin

In the case of `O=C(O)c1cccnc1` [niacin], the “number of tumors per mouse” value (UV-induced skin tumors; [2]) is reported as 0.6%, the skin tumor incidence (UV-induced skin tumors; [2]) is reported as 60% and the “number of tumors per mouse” value (UV-induced skin tumors; diet supplemented with 0.5% niacin) is reported as 0.48%. The skin tumor incidence (UV-induced skin tumors; diet supplemented with 0.5% niacin, p=0.0257) was 48%, the “number of tumors per mouse” value (UV-induced skin tumors; diet supplemented with 1.0% niacin) was 0.4% and the skin tumor incidence (UV-induced skin tumors; diet supplemented with 1.0% niacin, p=0.0257) was 28%. The mean tumor size (UVM12 tumor cells; recipients of splenocytes from UVB-irradiated donors on 0.1% niacin) was 79.8(+/−11.5) sq mm, the mean tumor size (UVM12 tumor cells; recipients of splenocytes from UVB-irradiated donors on 0.5% niacin) was 41.9 (+/−11.7) sq mm and the mean tumor size (UVM12 tumor cells; recipients of splenocytes from UVB-irradiated donors on 1.0% niacin) was 13.2(+/−4.1) sq mm. For the same compound, the “skin NAD content vs UV-irradiated mice receiving no additional niacin” value (skin NAD; 0.5% niacin supplementation, p<0.0001 dorsal skin, p=0.0114 ventral skin) was “significantly higher skin NAD content”, the “skin NAD content vs UV-irradiated mice receiving no additional niacin” value (skin NAD; 1.0% niacin supplementation, p=0.0025 dorsal skin, p=0.0017 ventral skin) was “significantly higher skin NAD content” and the “body weights of UV-irradiated mice, with or without supplemental niacin” value ([1]; 0.1, 0.5 or 1.0% niacin diets vs basal diet) was “similar”. For the same compound, the “Body Weight” value ([1]; +UV +0.1% niacin diet) was 18.2 grams, the “Food Consumed” value ([1]; +UV +0.1% niacin diet) was 2.47 (0.54) g/mouse/day and the “Body Weight” value ([1]; +UV +0.5% niacin diet) was 18.07 grams. The “Food Consumed” value ([1]; +UV +0.5% niacin diet) was 2.77 (0.66) g/mouse/day, the “Body Weight” value ([1]; +UV +1% niacin diet) was 18.55 grams and the “Food Consumed” value ([1]; +UV +1% niacin diet) was 2.88 (0.60) g/mouse/day.
